pIC50: −log10 of the molar value. “And” between values parts separate entries of the source, which are not always exact repeats. Identical values can stand only once.
How the values were obtained:
[1] = system: human cervical tumor cell line HeLa (ATCC CCL-2); assay: SAC-Formation - Nocodazole-Induced Assay; format: cell-based; settings: Homo sapiens, HeLa, 24 h, HeLa cells, nocodazole 0.1 μg/ml together with test compound, decrease of mitotic cells (phospho-histone H3 Ser10)
Outline: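 HeLa cells, plated overnight, were treated 24 h at 37 °C with nocodazole (0.1 μg/ml final) plus test compound (0.005–20 μM, 0.5% DMSO) added at the same time. After fixation, anti-phospho-histone H3 Ser10 and Hoechst staining gave the mitotic cell fraction by imaging. Values came from four-parameter Hill fits.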

[2] = molecular target: T1, catalytic domain of human Bub1 (amino acids 704-1085) (Homo sapiens, UniProt O43683); assay: Bub1 kinase assay (TR-FRET); format: biochemical; settings: 10 μM ATP, avg, read-out: Bub1 avg (IC50 [mol/l])
T1 construct: catalytic domain of human Bub1 (amino acids 704-1085); His6 (N); made in house; host or cells: insect cells (Hi5)
T1 sequence (O43683 704-1085): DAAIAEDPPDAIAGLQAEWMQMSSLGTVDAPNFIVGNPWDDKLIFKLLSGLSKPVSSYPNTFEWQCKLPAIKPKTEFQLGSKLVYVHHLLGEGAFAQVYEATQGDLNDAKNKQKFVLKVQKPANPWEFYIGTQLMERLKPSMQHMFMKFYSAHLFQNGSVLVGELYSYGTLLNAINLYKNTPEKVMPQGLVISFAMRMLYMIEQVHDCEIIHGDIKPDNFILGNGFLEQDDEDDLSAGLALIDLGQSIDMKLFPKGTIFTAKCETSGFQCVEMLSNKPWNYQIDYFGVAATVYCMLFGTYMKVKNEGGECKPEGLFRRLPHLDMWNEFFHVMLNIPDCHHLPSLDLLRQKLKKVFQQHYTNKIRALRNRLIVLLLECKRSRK
Outline: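 Readout is the 665/620 nm TR-FRET ratio from anti-phosphoserine antibody, Eu-labelled anti-mouse IgG and streptavidin-XL665, scaled between no-enzyme and uninhibited controls. Reaction: 1 μM biotinylated peptide, 10 μM ATP, 60 min, 22 °C, after 15 min compound preincubation with His6-Bub1 (704-1085, insect-expressed, ~200 ng/ml).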

Cc1nsc(Nc2cncc(C(F)(F)F)n2)c1C(=O)Nc1ccc(OC2CCNCC2)nc1 [Example 13, 3-Methyl-N-[6-(piperidin-4-yloxy)pyridin-3-yl]-5-{[6-(trifluoromethyl)pyrazin-2-yl]-amino}-1,2-thiazole-4-carboxamide] was tested, and the pIC50 [1] was 5.34 and the pIC50 [2] was ≤ 4.70.
For Cc1nsc(Nc2cncc(C(F)(F)F)n2)c1C(=O)Nc1ccc(OC2CCN(CCF)CC2)nc1 [Example 14, N-(6-{[1-(2-Fluoroethyl)piperidin-4-yl]oxy}pyridin-3-yl)-3-methyl-5-{[6-(trifluoro-methyl)pyrazin-2-yl]amino}-1,2-thiazole-4-carboxamide], the pIC50 [1] was 6.03 and the pIC50 [2] was ≤ 4.70.
Cc1nsc(Nc2cncc(C(F)(F)F)n2)c1C(=O)Nc1ccc(OC2CCN(CC(F)(F)F)CC2)nc1 [Example 16, 3-Methyl-N-(6-{[1-(2,2,2-trifluoroethyl)piperidin-4-yl]oxy}pyridin-3-yl)-5-{[6-(trifluoromethyl)pyrazin-2-yl]amino}-1,2-thiazole-4-carboxamide] was tested, and the pIC50 [1] was 7.39 and the pIC50 [2] was ≤ 4.70.
CC(=O)N1CCC(Oc2ccc(NC(=O)c3c(C)nsc3Nc3cncc(C(F)(F)F)n3)cn2)CC1 [Example 17, N-{6-[(1-Acetylpiperidin-4-yl)oxy]pyridin-3-yl}-3-methyl-5-{[6-(trifluoromethyl)-pyrazin-2-yl]amino}-1,2-thiazole-4-carboxamide] was tested, and the pIC50 [1] was 6.68 and the pIC50 [2] was ≤ 4.70.
Cc1nsc(Nc2cnc3ccccc3n2)c1C(=O)Nc1ccc(OC2CCN(C(=O)OC(C)(C)C)CC2)nc1 [Example 18, tert-Butyl 4-{[5-({[3-methyl-5-(quinoxalin-2-ylamino)-1,2-thiazol-4-yl]carbonyl}-amino)pyridin-2-yl]oxy}piperidine-1-carboxylate] was tested, and the pIC50 [1] was 7.36 and the pIC50 [2] was ≤ 4.70.
With Cc1nsc(Nc2cnc3ccccc3n2)c1C(=O)Nc1ccc(OC2CCNCC2)nc1 [Example 19, 3-Methyl-N-[6-(piperidin-4-yloxy)pyridin-3-yl]-5-(quinoxalin-2-ylamino)-1,2-thiazole-4-carboxamide] the pIC50 [1] was 6.49 and the pIC50 [2] was ≤ 4.70.
For Cc1nsc(Nc2cnc3ccccc3n2)c1C(=O)Nc1ccc(OC2CCN(CC(F)F)CC2)nc1 [Example 20, N-(6-{[1-(2,2-difluoroethyl)piperidin-4-yl]oxy}pyridin-3-yl)-3-methyl-5-(quinoxalin-2-ylamino)-1,2-thiazole-4-carboxamide], the pIC50 [1] was 7.28 and the pIC50 [2] was ≤ 4.70.
With CCN(CC)CCNC(=O)c1cccc(NC(=O)c2c(C)nsc2Nc2cc(C#N)ccn2)c1 [Example 174, 5-[(4-cyanopyridin-2-yl)amino]-N-(3-{[2-(diethylamino)ethyl]carbamoyl}phenyl)-3-methyl-1,2-thiazole-4-carboxamide] the pIC50 [1] was 5.24 and the pIC50 [2] was < 4.70.
Cc1nsc(Nc2cc(C#N)ccn2)c1C(=O)Nc1cccc(C(=O)NC2CC2)c1 [Example 175, 5-[(4-cyanopyridin-2-yl)amino]-N-[3-(cyclopropylcarbamoyl)phenyl]-3-methyl-1,2-thiazole-4-carboxamide] was tested, and the pIC50 [1] was 5.66.
COC(=O)CCc1cccc(NC(=O)c2c(C)nsc2Nc2ccc(C#N)cn2)c1 [Example 176, methyl 3-{3-[({5-[(5-cyanopyridin-2-yl)amino]-3-methyl-1,2-thiazol-4-yl}carbonyl)amino]phenyl}propanoate] was tested, and the pIC50 [1] was 6.64 and the pIC50 [2] was < 4.70.
With Cc1nsc(Nc2cc(C#N)ccn2)c1C(=O)Nc1ccc(NC(=O)OC(C)(C)C)cc1 [Example 177, tert-butyl {4-[({5-[(4-cyanopyridin-2-yl)amino]-3-methyl-1,2-thiazol-4-yl}carbonyl)amino]phenyl}carbamate] the pIC50 [1] was 5.41 and the pIC50 [2] was < 4.70.
In the case of Cc1nsc(Nc2cnc3ccccc3n2)c1C(=O)Nc1cccc(NC(=O)OC(C)(C)C)c1 [Example 178, tert-butyl [3-({[3-methyl-5-(quinoxalin-2-ylamino)-1,2-thiazol-4-yl]carbonyl}amino)-phenyl]carbamate], the pIC50 [1] was 6.68 and the pIC50 [2] was < 4.70.
With Cc1nsc(Nc2ccc(C#N)cn2)c1C(=O)Nc1cccc(NC(=O)OC(C)(C)C)c1 [Example 179, tert-butyl {3-[({5-[(5-cyanopyridin-2-yl)amino]-3-methyl-1,2-thiazol-4-yl}carbonyl)amino]phenyl}carbamate] the pIC50 [1] was 6.49 and the pIC50 [2] was < 4.70.
For Cc1nsc(Nc2ccc(C#N)cn2)c1C(=O)Nc1cccc(N)c1 [Example 180, N-(3-aminophenyl)-5-[(5-cyanopyridin-2-yl)amino]-3-methyl-1,2-thiazole-4-carboxamide], the pIC50 [1] was 5.89 and the pIC50 [2] was < 4.70.
With Cc1nsc(Nc2cnc3ccccc3n2)c1C(=O)Nc1ccc(C(=O)OC(C)(C)C)cc1 [Example 181, tert-butyl 4-({[3-methyl-5-(quinoxalin-2-ylamino)-1,2-thiazol-4-yl]carbonyl}amino)benzoate] the pIC50 [1] was 6.59 and the pIC50 [2] was < 4.70.
For Cc1nsc(Nc2cc(C#N)ccn2)c1C(=O)Nc1ccc(C(=O)OC(C)(C)C)cc1 [Example 182, tert-butyl 4-[({5-[(4-cyanopyridin-2-yl)amino]-3-methyl-1,2-thiazol-4-yl}carbonyl)amino]benzoate], the pIC50 [1] was 7.60 and the pIC50 [2] was < 4.70.
In the case of Cc1nsc(Nc2cc(C#N)ccn2)c1C(=O)Nc1cccc(NC(=O)C(C)(C)C)c1 [Example 183, 5-[(4-cyanopyridin-2-yl)amino]-N-{3-[(2,2-dimethylpropanoyl)amino]phenyl}-3-methyl-1,2-thiazole-4-carboxamide], the pIC50 [1] was 5.82 and the pIC50 [2] was < 4.70.
For Cc1nsc(Nc2cnccn2)c1C(=O)Nc1ccc(C(=O)OC(C)(C)C)cc1 [Example 184, tert-butyl 4-({[3-methyl-5-(pyrazin-2-ylamino)-1,2-thiazol-4-yl]carbonyl}amino)benzoate], the pIC50 [1] was 7.06 and the pIC50 [2] was < 4.70.
With Cc1nsc(Nc2cnc3ccccc3n2)c1C(=O)Nc1ccc(NC(=O)C(C)(C)C)cc1 [Example 185, N-{4-[(2,2-dimethylpropanoyl)amino]phenyl}-3-methyl-5-(quinoxalin-2-ylamino)-1,2-thiazole-4-carboxamide] the pIC50 [1] was 5.80 and the pIC50 [2] was < 4.70.
With Cc1nsc(Nc2cnc3ccccc3n2)c1C(=O)Nc1cccc(NC(=O)C(C)(C)C)c1 [Example 186, N-{3-[(2,2-dimethylpropanoyl)amino]phenyl}-3-methyl-5-(quinoxalin-2-ylamino)-1,2-thiazole-4-carboxamide] the pIC50 [1] was 6.20 and the pIC50 [2] was < 4.70.
In the case of Cc1nsc(Nc2cnc3ccccc3n2)c1C(=O)Nc1ccc(C(=O)O)cc1 [Example 187, 4-({[3-methyl-5-(quinoxalin-2-ylamino)-1,2-thiazol-4-yl]carbonyl}amino)benzoic acid], the pIC50 [1] was 5.66 and the pIC50 [2] was 5.42.
For Cc1nsc(Nc2cnc3ccccc3n2)c1C(=O)Nc1ccccc1S(C)(=O)=O [Example 188, 3-methyl-N-[2-(methylsulfonyl)phenyl]-5-(quinoxalin-2-ylamino)-1,2-thiazole-4-carboxamide], the pIC50 [1] was 6.64 and the pIC50 [2] was < 4.70.
For Cc1nsc(Nc2cncc(C(F)(F)F)n2)c1C(=O)Nc1ccc(OC2CCCN(C(=O)OC(C)(C)C)C2)nc1 (centres unmarked) [Example 189, tert-butyl 3-[(5-{[(3-methyl-5-{[6-(trifluoromethyl)pyrazin-2-yl]amino}-1,2-thiazol-4-yl)carbonyl]amino}pyridin-2-yl)oxy]piperidine-1-carboxylate], the pIC50 [1] was 6.82 and the pIC50 [2] was < 4.70.
Cc1nsc(Nc2cncc(C(F)(F)F)n2)c1C(=O)Nc1ccc(OCCCNC(=O)OC(C)(C)C)nc1 [Example 190, tert-butyl {3-[(5-{[(3-methyl-5-{[6-(trifluoromethyl)pyrazin-2-yl]amino}-1,2-thiazoL-4-yl)carbonyl]amino}pyridin-2-yl)oxy]propyl}carbamate] was tested, and the pIC50 [1] was 7.12 and the pIC50 [2] was < 4.70.
For Cc1nsc(Nc2cncc(C(F)(F)F)n2)c1C(=O)Nc1ccc(OCCNC(=O)OC(C)(C)C)nc1 [Example 191, tert-butyl {2-[(5-{[(3-methyl-5-{[6-(trifluoromethyl)pyrazin-2-yl]amino}-1,2-thiazol-4-yl)carbonyl]amino}pyridin-2-yl)oxy]ethyl}carbamate], the pIC50 [1] was 7.23 and the pIC50 [2] was < 4.70.
In the case of Cc1nsc(Nc2cnc(C(F)(F)F)cn2)c1C(=O)Nc1ccc(OCCNC(=O)OC(C)(C)C)nc1 [Example 192, tert-butyl {2-[(5-{[(3-methyl-5-{[5-(trifluoromethyl)pyrazin-2-yl]amino}-1,2-thiazol-4-yl)carbonyl]amino}pyridin-2-yl)oxy]ethyl}carbamate], the pIC50 [1] was 7.43 and the pIC50 [2] was < 4.70.
For Cc1nsc(Nc2cncc(C(F)(F)F)n2)c1C(=O)Nc1ccc(C(=O)OC(C)(C)C)cc1 [Example 193, tert-butyl tert-butyl 4-{[(3-methyl-5-{[6-(trifluoromethyl)pyrazin-2-yl]amino}-1,2-thiazol-4-yl)carbonyl]amino}benzoate], the pIC50 [1] was 6.33 and the pIC50 [2] was < 4.70.
In the case of Cc1nsc(Nc2cncc(C(F)(F)F)n2)c1C(=O)Nc1cccc(S(C)(=O)=O)c1 [Example 194, 3-methyl-N-[3-(methylsulfonyl)phenyl]-5-{[6-(trifluoromethyl)pyrazin-2-yl]amino}-1,2-thiazole-4-carboxamide], the pIC50 [1] was 6.64 and the pIC50 [2] was < 4.70 and 4.96 and 4.72.
For Cc1nsc(Nc2cnc(C(F)(F)F)cn2)c1C(=O)Nc1cccc(S(C)(=O)=O)c1 [Example 195, 3-methyl-N-[3-(methylsulfonyl)phenyl]-5-{[5-(trifluoromethyl)pyrazin-2-yl]amino}-1,2-thiazole-4-carboxamide], the pIC50 [1] was 6.18.

Reference: patent US20170334899A1, “AMINO-SUBSTITUTED ISOTHIAZOLES” (Bayer Pharma Aktiengesellschaft, priority 2014, published 2017)
